Reference: patent US20070203118A1, “SUBSTITUTED TETRAHYDROISOQUINOLINES USED IN THE FORM OF MMP INHIBITORS, METHOD FOR THE PRODUCTION AND USE THEREOF IN THE FORM OF DRUGS” (SANOFI-AVENTIS DEUTSCHLAND GMBH, priority 2004, published 2007)

Biological target: T1, catalytic domain of human gelatinase-A (MMP-9) (Homo sapiens, UniProt P14780)
T1 construct: Determination of the Enzymatic Activity of the Catalytic Domain of Human Gelatinase-A (MMP-9); purchased Roche, Mannheim
Assay: Enzymatic activity of the catalytic domain of human gelatinase (MMP-9), fluorogenic substrate
Type: biochemical
Details: stated in the text
Method: Determination of the Enzymatic Activity of the Catalytic Domain of Human Gelatinase-A (MMP-9)
Activation of the proenzyme:
2 parts by volume of proenzyme were incubated with 1 part by volume of APMA solution at 37° C. for 4 hours. The APMA solution was prepared from a 10 mmol/l p-aminophenylmercuric acetate solution in 0.1 mmol/l NaOH by dilution with 3 parts by volume of Tris/HCl buffer pH 7.5 (see below). The pH was adjusted to between 7.0 and 7.5 by adding 1 mmol/l HCl. After activation of the enzyme it was diluted with the Tris/HCl buffer to a concentration of 4.2 mU/ml.
The enzymic activity was measured by incubating 10 μl of enzyme solution with 10 μl of a 3% strength (v/v) buffered dimethyl sulfoxide solution (reaction 1) for 15 minutes. The enzyme inhibitor activity was measured by incubating 10 μl of enzyme solution with 10 μl of a 3% strength (v/v) buffered dimethyl sulfoxide solution which contained the enzyme inhibitor (reaction 2).
The enzymic reaction both in the case of reaction 1 and in the case of reaction 2 was followed after addition of 10 μl of a 3% strength (v/v) aqueous dimethyl sulfoxide solution which contained 0.15 mmol/l of the substrate by fluorescence spectroscopy (328 nm (extinction)/393 nm (emission)).
The enzymic activity has been presented as increase in extinction/minute.
The effect of the inhibitor was calculated as percentage inhibition by the following formula: % inhibition=100−[(increase in extinction/minute in reaction 2)/(increase in extinction/minute in reaction 1)×100].
The IC50, which is the concentration of inhibitor which is necessary for 50% inhibition of the enzymic activity, was determined graphically by plotting the percentage inhibitions at various inhibitor concentrations.
The buffer solution contained 0.05% Brij (Sigma, Deisenhofen, Germany) and 0.1 mol/l Tris/HCl, 0.1 mol/l NaCl, 0.01 mol/l CaCl2 (pH=7.5). The enzyme solution contained 4.2 mU/ml of the enzyme domain. The substrate solution contained 0.15 mmol/l of the fluorogenic substrate (7-methoxycoumarin-4-yl)acetyl-Pro-Leu-Gly-Leu-3-(2′,4′-dinitrophenyl)-L-2,3-diaminopropionyl-Ala-Arg-NH2 (Bachem, Heidelberg, Germany).

T1 sequence (P14780 107-707 limits assumed): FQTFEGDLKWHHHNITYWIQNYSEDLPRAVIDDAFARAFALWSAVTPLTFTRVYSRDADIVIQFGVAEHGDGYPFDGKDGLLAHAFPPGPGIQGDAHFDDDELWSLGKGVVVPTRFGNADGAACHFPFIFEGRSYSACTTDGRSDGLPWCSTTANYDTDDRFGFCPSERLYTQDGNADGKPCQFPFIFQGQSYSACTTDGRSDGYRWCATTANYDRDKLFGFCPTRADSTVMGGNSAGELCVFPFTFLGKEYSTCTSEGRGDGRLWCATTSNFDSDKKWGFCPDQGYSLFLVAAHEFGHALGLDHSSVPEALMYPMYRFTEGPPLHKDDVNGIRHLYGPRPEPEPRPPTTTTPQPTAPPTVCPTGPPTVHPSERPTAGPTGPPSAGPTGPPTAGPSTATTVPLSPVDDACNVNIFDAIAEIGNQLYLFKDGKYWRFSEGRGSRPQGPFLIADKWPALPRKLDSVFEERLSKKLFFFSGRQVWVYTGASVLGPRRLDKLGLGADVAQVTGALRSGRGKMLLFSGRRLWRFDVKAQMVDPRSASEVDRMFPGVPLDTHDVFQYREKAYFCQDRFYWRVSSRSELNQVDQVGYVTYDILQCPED

ratio of MMP1 to MMP9 inhibition | SMILES
3.7 | COc1ccc(S(=O)(=O)N2CCc3ccccc3C2C(=O)NO)cc1 (centres unmarked) [reference compound]
60 | COc1ccc(Oc2ccc(S(=O)(=O)N3CCc4ccccc4C3C(=O)NO)cc2)cc1 (centres unmarked)
